From patent US20080166310A1, “Administration of 2-oxyacetamide compounds for promoting and/or inducing and/or stimulating the pigmentation of keratin materials and/or for limiting the depigmentation and/or bleaching thereof” (L'OREAL, priority 2005, published 2008) come the findings set out here.

For this experiment, the system named is tyrosinase activity of normal human melanocytes. Description: Effect on the tyrosinase activity of normal human melanocytes in culture (L-Dopa substrate, absorbance 450 nm). It is filed as cell-based. The conditions noted are these: 72 hours, normal human epidermal melanocytes. As to the method:
Melanocyte Culture Conditions:
Normal human epidermal melanocytes are cultured (9th passage) in “melanocytes growth medium M2” supplemented with Promocell C24300 supplements 50 IU/ml of penicillin and 50 μg/ml of streptomycin (Invitrogen) under standard temperature conditions (37° C.) and 5% CO2.
Preparation of the Solutions of the Test Compound:
The compound is dissolved in absolute ethanol (PGE2) or in DMSO (15-PGDH inhibitors). The final titer of the prepared solutions is 10 mM. The final test concentrations range from 0.1 to 10 μM (PGE2) and 1 to 10 μM (15-PGDH inhibitors).
The tests performed consist in measuring the inhibitory effect on 15-PGDH alone or combined with PGE2* on the overall activity of tyrosinase.
PGE2 is a pigmentation modulator that is deactivated by the enzyme 15-PGDH.
The melanocytes are cultured in 96-well plates, to the point of confluence (culture conditions described in a), and the supernatant of each of the wells is then removed and replaced with medium containing the compounds to be evaluated, i.e., (in triplicate) the 15-PGDH inhibitor alone at 1 μM and 10 μM or for each of these first conditions in the presence of 0.1 μM, 1 μM or 10 μM of PGE2.
The cultures are maintained under these various conditions for 72 hours, the supernatants are then removed and the cell carpets are washed with a phosphate buffer (pH=7.2). The cells are lysed with a pH 7.2 phosphate buffer containing 1% Triton X100.
The tyrosinase activity of each of the lysates is then estimated against a fungal tyrosinase range (Sigma T7755).
The methodology employed uses L-Dopa as reaction substrate (45 minutes at 37° C.), and the formation of melanin is assessed by measuring the absorbance at 450 nm.
In this test, two references are also evaluated: kojic acid (a tyrosinase inhibitor introduced at 0.1% into the culture medium) and isobutylmethylxanthine (IBMX), a phosphodiesterase inhibitor which, by limiting the catabolism of cAMP, contributes towards increasing the overall tyrosinase activity as assessed in this test.

With `O=C(COc1cccc(Cl)c1)NCc1ccco1` [Compound 23, 2-(3-chlorophenoxy)-N-furan-2-ylmethylacetamide], the “stimulation of the tyrosinase activity” value (Compound 23 (1 μM) + PGE2 (1 μM)) was 31% and the “stimulation of the tyrosinase activity” value (Compound 23 (1 μM) + PGE2 (10 μM)) was 28%.
On to `CCCCC[C@H](O)/C=C/[C@H]1[C@H](O)CC(=O)[C@@H]1C/C=C\CCCC(=O)O` [PGE2, prostaglandin E2], for which the “stimulation of the activity of tyrosinase” value runs as follows: (PGE2 alone at 1 μM) 9%; (PGE2 alone at 10 μM) 15%.
